Results published in patent US11406622B2, “Glaucocalyxin a derivative, pharmaceutically acceptable salt thereof, or pharmaceutical composition thereof and uses thereof in preparation of drugs for treating psoriasis” (SUZHOU PHARMAVAN CO., LTD., priority 2017, dated 2022).
Where a name gives a salt, the structure may show the parent alone.

Test system: BALB/c mice
Experiment: Acute toxicity in BALB/c mice, single tail-vein injection (Example 9)
Type: in vivo, mouse
Details: single intravenous injection, 10 mg/kg
Text: In this example, Compound 23 and Compound 24 were detected for their acute toxicities, and the detection method was as follows.
Experimental procedure: 40 BALB/c mice, half male and half female, were randomly divided into groups after weight measurement. The weight of an individual should be within the range of the average body weight±20%. Animals should be allowed to acclimatize to the environment for at least 5 days before the test, and healthy (if female, it must be un-pregnant) mice were selected as test animals. The main inspections during the acclimatization period included: whether it met the quality indicators required at the time of ordering; general state check; and whether the weight reached the weight range required by the test. Unqualified abnormal animals were not included in this test. A single tail-vein injection was administrated to the mice at a low, medium, or high dose, which was 5 mg/kg, 10 mg/kg, or 40 mg/kg respectively according to a blank preparation pre-test. An equal volume of vehicle was intravenously injected to establish a control group.
Mice were observed once respectively at 0 to 2 hours and 4 to 6 hours after each administration. If toxic symptoms occurred, the number of observations could be increased. (2) Gross anatomy observation: All the surviving mice in each group were dissected and observed on the 8th day of the experiment. The abnormal organs and tissues found in the observation of administration sites and in the gross anatomy observation that might be related to the test samples were photographed and recorded. (3) Disposal of dying animals: The state of the mouse and the observation time were recorded, and the body weight was measured. (4) Disposal of dead animals: The time of death or the time when the death was found was recorded, the body weight was measured, and then the dissection was quickly performed for gross observation to speculate the cause of death.

Compound	animals that died
Br.C=C1C(=O)C23C(O)CC4C(C)(C)c5nc(NC)sc5CC4(C)C2CCC1C3O (stereo not shown) [Compound 24]	All animals

Test system: human keratinocytes (HaCaT)
Experiment: Effect on proliferation of human keratinocytes, CCK-8, 48 h (Example 5)
Type: cell-based
Details: 48 hours of treatment
Procedure: In this example, the glaucocalyxin A derivatives of the present application, or pharmaceutically acceptable salts thereof, were examined for the effect on the proliferation of human keratinocytes. In this example, the glaucocalyxin A derivatives as shown in Table 1 were examined by using the following procedure. A cell suspension was prepared and inoculated into three 96-well plates at 8000 cells in a volume of 150 μl per well, which were then cultured overnight in an incubator at 37° C., 5% CO2. On the next day, 50 μl of test compound solution at different concentrations was added to each well. Triplicate wells were set up for each concentration. A vehicle control group (without compound), a cell control group (without compound and vehicle), and a blank medium control group (without cells, a well for null adjustment) were also set up, and cultured for an additional 48 hours. CCK-8 staining working solution was added at 110 μL per well, and cultured for additional 1-4 h. At the end of the culture, the absorbances were measured at 450 nm (OD450 nm) on a Bio-Tek enzyme-linked immunosorbent assay. The results were expressed as the mean OD450 nm value of triplicates±standard deviation (x±sd). The Origin 7.0 was used for plotting and analysis. A fitting curve was obtained by plotting the OD value of each group against the logarithmic concentration of the test compound, and then the IC50 value was determined.

Compound	IC50
C=C1C(=O)C23C(O)CC4C(C)(C)c5nc(N)sc5CC4(C)C2CCC1C3O (stereo not shown) [Compound 01]	3.21 µM
C=C1C(=O)C23C(O)CC4C(C)(C)c5nc(N)sc5CC4(C)C2CCC1C3O (stereo not shown) [Compound 02]	3.52 µM
C=C1C(=O)C23C(O)CC4C(C)(C)c5nc(N)sc5CC4(C)C2CCC1C3O (stereo not shown) [Compound 03]	4.02 µM
C=C1C(=O)C23C(O)CC4C(C)(C)c5nc(N)sc5CC4(C)C2CCC1C3O (stereo not shown) [Compound 04]	4.1 µM
C=C1C(=O)C23C(O)CC4C(C)(C)c5nc(N)sc5CC4(C)C2CCC1C3O (stereo not shown) [Compound 05]	3.45 µM
C=C1C(=O)C23C(O)CC4C(C)(C)c5nc(N)sc5CC4(C)C2CCC1C3O (stereo not shown) [Compound 06]	2.91 µM
C=C1C(=O)C23C(O)CC4C(C)(C)c5nc(N)sc5CC4(C)C2CCC1C3O (stereo not shown) [Compound 07]	3.28 µM
C=C1C(=O)C23C(O)CC4C(C)(C)c5nc(N)sc5CC4(C)C2CCC1C3O (stereo not shown) [Compound 08]	2.85 µM
C=C1C(=O)C23C(O)CC4C(C)(C)c5nc(N)sc5CC4(C)C2CCC1C3O (stereo not shown) [Compound 09]	2.42 µM
C=C1C(=O)C23C(O)CC4C(C)(C)c5nc(N)sc5CC4(C)C2CCC1C3O (stereo not shown) [Compound 10]	3.86 µM
C=C1C(=O)C23C(O)CC4C(C)(C)c5nc(N)sc5CC4(C)C2CCC1C3O (stereo not shown) [Compound 11]	3 µM
C=C1C(=O)C23C(O)CC4C(C)(C)c5nc(NN)sc5CC4(C)C2CCC1C3O (stereo not shown) [Compound 12]	1.21 µM
C=C1C(=O)C23C(O)CC4C(C)(C)c5nc(Nc6ccncc6)sc5CC4(C)C2CCC1C3O (stereo not shown) [Compound 13]	3.62 µM
C=C1C(=O)C23C(O)CC4C(C)(C)c5nc(NCCC)sc5CC4(C)C2CCC1C3O (stereo not shown) [Compound 14]	7 µM
C=C1C(=O)C23C(O)CC4C(C)(C)c5nc(NC(C)C)sc5CC4(C)C2CCC1C3O (stereo not shown) [Compound 15]	6.95 µM
C=C1C(=O)C23C(O)CC4C(C)(C)c5nc(NCCCC)sc5CC4(C)C2CCC1C3O (stereo not shown) [Compound 16]	8.88 µM
C=C1C(=O)C23C(O)CC4C(C)(C)c5nc(NCCCCCC)sc5CC4(C)C2CCC1C3O (stereo not shown) [Compound 17]	4.29 µM
C=CCNc1nc2c(s1)CC1(C)C(CC(O)C34C(=O)C(=C)C(CCC13)C4O)C2(C)C (stereo not shown) [Compound 18]	7.24 µM
C=C1C(=O)C23C(O)CC4C(C)(C)c5nc(NC6CCCCC6)sc5CC4(C)C2CCC1C3O (stereo not shown) [Compound 19]	8.16 µM
C=C1C(=O)C23C(O)CC4C(C)(C)c5nc(Nc6ccccc6)sc5CC4(C)C2CCC1C3O (stereo not shown) [Compound 20]	9.31 µM
C=C1C(=O)C23C(O)CC4C(C)(C)c5nc(NCc6ccccc6)sc5CC4(C)C2CCC1C3O (stereo not shown) [Compound 21]	9.2 µM
C=C1C(=O)C23C(O)CC4C(C)(C)c5nc(N(C)C)sc5CC4(C)C2CCC1C3O (stereo not shown) [Compound 22]	0.95 µM
Br.C=C1C(=O)C23C(O)CC4C(C)(C)c5nc(NC)sc5CC4(C)C2CCC1C3O (stereo not shown) [Compound 24]	3.17 µM
C=C1C(=O)C23C(O)CC4C(C)(C)c5nc(NCC)sc5CC4(C)C2CCC1C3O (stereo not shown) [Compound 25]	5.49 µM
C=C1C(=O)C23C(O)CC4C(C)(C)c5nc(NCCC)sc5CC4(C)C2CCC1C3O (stereo not shown) [Compound 26]	7.86 µM
C=C1C(=O)C23C(O)CC4C(C)(C)c5nc(NC(C)C)sc5CC4(C)C2CCC1C3O (stereo not shown) [Compound 27]	6.92 µM
C=C1C(=O)C23C(O)CC4C(C)(C)c5nc(N(CC)CC)sc5CC4(C)C2CCC1C3O (stereo not shown) [Compound 28]	1.26 µM
C=C1C(=O)C23C(O)CC4C(C)(C)c5nc(N(CCC)CCC)sc5CC4(C)C2CCC1C3O (stereo not shown) [Compound 29]	1.85 µM
C=C1C(=O)C23C(O)CC4C(C)(C)c5nc(N(C(C)C)C(C)C)sc5CC4(C)C2CCC1C3O (stereo not shown) [Compound 30]	2.37 µM

Same assay, conditions: Homo sapiens, 48 hours of treatment

Compound	IC50
C=C1C(=O)[C@@]23[C@H](O)C[C@@H]4C(C)(C)C(=O)CC[C@@]4(C)[C@@H]2CC[C@@H]1[C@H]3O [Compound 31, glaucocalyxin A]	30.5 µM
CN(C)C[C@@H]1C(=O)C23C(O)C1CCC2[C@]1(C)CCC(=O)C(C)(C)[C@H]1C[C@H]3O (stereo partly shown) [Compound 32, dimethylamino glaucocalyxin A hydrochloride, reference compound]	18.7 µM

Test system: mouse spleen lymphocytes
Experiment: ConA-induced proliferation of mouse spleen lymphocytes, MTT (Example 8)
Type: cell-based
Details: Table 4, 0.001 μg/mL, 48 h, 5 μg/mL ConA
Procedure: In this example, the glaucocalyxin A derivatives and pharmaceutically acceptable salts thereof were detected for the effect thereof on ConA-induced proliferation of mouse spleen lymphocytes.
2×10^7/mL cell suspension was prepared and a 5 μg/μL ConA stock solution was added thereto at a final concentration of 5 μg/mL. The resulting mixture was inoculated into a 96-well culture plate at 0.1 mL per well. Then 0.1 mL of test compound at different concentrations was added to each well. Triplicate or quadruplicate wells were set up for each group, and a vehicle control group (without compound), a stimulant control group (with ConA, without compound, and without vehicle), a cell control group (without ConA, without compound, and without vehicle), and a blank medium control group (without cells, a well for null adjustment) were also set up, and cultured at 37° C., 5% CO2 for 48 h. MTT solution at 5 mg/mL was added at 20 μl per well, and cultured for an additional 4 hours. The culture plate was taken out and centrifuged at 1000 rpm for 10 min. The supernatant of each well was aspirated, and 100 μL of SDS cell lysis solution was added to each well, and cultured overnight. On the next day, the absorbance at 550 nm (OD550nm) was measured on an enzyme-linked immunoassay analyzer. The results were expressed as the mean OD550nm value of the triplicates or quadruplicates±standard deviation (x±sd). SPSS software version 17.0 was used for statistical analysis of the mean values, that is, the vehicle group was compared with the stimulant group, and the test group of each compound concentration was compared with the corresponding vehicle control group. The cell survival rate of each group was calculated according to the mean value for the compound treatment group and the mean value for the vehicle control group, that is, the cell survival rate (%)=the mean value for the compound treatment group/the mean value for the vehicle control group×100%. A linear regression equation was obtained by plotting the cell survival rate of each group against the concentration of the test compound, statistical test of the correlation coefficient was conducted, and then the IC50 value was determined.

Compound	OD550nm value (x ± sd)	Survival rate (%)
CC(C)[C@]12O[C@H]1[C@@H]1O[C@]13[C@]1(O[C@H]1C[C@H]1C4=C(CC[C@@]13C)C(=O)OC4)[C@@H]2O [triptolide, reference compound]	1.03	98%

Same assay, conditions: Table 4, 0.1 μg/mL, 48 h, 5 μg/mL ConA

Compound	OD550nm value (x ± sd)	Survival rate (%)
CC(C)[C@]12O[C@H]1[C@@H]1O[C@]13[C@]1(O[C@H]1C[C@H]1C4=C(CC[C@@]13C)C(=O)OC4)[C@@H]2O [triptolide, reference compound]	0.42	40%

Same assay, conditions: range of concentrations tested, 48 h, 5 μg/mL ConA

Compound	effect on ConA-induced proliferation of mouse spleen lymphocytes (in words)
CC(C)[C@]12O[C@H]1[C@@H]1O[C@]13[C@]1(O[C@H]1C[C@H]1C4=C(CC[C@@]13C)C(=O)OC4)[C@@H]2O [triptolide, reference compound]	varying degrees of inhibition
